What was measured:
[1] = target: T1, human aryl hydrocarbon receptor (AHR) (Homo sapiens, UniProt P35869); experiment: gel shift (EMSA) of in vitro translated AHR/ARNT; HepG2 reporter; assay type: cell-based; design: in vitro translated human AHR; with ARNT
Target sequence in this assay (P35869 11-848): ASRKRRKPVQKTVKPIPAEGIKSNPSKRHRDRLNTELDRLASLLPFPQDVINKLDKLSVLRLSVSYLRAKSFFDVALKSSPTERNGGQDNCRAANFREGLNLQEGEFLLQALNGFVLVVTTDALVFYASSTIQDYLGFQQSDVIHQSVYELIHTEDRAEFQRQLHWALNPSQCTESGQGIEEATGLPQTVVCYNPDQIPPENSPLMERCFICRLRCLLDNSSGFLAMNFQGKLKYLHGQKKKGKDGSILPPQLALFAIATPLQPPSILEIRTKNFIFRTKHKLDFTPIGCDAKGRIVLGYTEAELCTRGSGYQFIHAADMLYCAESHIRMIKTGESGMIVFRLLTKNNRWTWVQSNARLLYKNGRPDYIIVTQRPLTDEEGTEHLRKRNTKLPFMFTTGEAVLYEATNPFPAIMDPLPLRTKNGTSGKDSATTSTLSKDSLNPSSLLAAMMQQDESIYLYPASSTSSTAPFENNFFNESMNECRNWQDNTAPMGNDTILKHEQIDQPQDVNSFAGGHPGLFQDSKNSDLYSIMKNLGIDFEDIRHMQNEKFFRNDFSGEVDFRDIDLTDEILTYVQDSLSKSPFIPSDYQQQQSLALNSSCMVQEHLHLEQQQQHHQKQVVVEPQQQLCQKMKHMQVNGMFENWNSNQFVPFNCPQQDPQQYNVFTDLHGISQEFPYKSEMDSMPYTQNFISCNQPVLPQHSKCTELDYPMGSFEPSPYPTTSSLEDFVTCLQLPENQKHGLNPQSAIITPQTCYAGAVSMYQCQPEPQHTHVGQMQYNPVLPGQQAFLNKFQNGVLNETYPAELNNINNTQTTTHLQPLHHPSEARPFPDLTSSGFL
Target sequence in this assay (P27540 2-789 partner): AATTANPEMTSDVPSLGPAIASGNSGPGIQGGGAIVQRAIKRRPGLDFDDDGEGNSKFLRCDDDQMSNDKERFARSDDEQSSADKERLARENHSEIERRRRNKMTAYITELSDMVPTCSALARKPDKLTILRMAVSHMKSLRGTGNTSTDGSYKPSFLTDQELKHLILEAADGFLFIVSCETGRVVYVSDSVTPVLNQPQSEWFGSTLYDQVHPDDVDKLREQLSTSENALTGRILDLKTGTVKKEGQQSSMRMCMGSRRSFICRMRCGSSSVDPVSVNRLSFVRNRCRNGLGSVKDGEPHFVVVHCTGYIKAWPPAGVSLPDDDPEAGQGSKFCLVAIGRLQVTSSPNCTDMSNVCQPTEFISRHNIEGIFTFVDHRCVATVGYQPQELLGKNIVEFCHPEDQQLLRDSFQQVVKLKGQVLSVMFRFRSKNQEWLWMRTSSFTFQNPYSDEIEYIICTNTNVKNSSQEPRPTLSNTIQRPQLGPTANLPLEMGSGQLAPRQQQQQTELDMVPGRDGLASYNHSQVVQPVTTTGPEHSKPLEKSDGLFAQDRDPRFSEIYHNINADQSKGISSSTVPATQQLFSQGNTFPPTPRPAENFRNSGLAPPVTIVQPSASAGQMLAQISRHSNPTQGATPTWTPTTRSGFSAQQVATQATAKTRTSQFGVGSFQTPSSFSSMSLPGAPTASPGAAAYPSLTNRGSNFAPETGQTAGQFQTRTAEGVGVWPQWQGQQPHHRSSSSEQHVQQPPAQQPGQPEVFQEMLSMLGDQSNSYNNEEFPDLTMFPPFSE

[2] = target: T2, chimpanzee AHR (Pan troglodytes, UniProt K7AJA4); experiment: gel shift (EMSA) of in vitro translated AHR/ARNT, […] TCDD; assay type: cell-based
T2 construct: in vitro translated chimpanzee AHR; with ARNT
T2 sequence (K7AJA4 1-850): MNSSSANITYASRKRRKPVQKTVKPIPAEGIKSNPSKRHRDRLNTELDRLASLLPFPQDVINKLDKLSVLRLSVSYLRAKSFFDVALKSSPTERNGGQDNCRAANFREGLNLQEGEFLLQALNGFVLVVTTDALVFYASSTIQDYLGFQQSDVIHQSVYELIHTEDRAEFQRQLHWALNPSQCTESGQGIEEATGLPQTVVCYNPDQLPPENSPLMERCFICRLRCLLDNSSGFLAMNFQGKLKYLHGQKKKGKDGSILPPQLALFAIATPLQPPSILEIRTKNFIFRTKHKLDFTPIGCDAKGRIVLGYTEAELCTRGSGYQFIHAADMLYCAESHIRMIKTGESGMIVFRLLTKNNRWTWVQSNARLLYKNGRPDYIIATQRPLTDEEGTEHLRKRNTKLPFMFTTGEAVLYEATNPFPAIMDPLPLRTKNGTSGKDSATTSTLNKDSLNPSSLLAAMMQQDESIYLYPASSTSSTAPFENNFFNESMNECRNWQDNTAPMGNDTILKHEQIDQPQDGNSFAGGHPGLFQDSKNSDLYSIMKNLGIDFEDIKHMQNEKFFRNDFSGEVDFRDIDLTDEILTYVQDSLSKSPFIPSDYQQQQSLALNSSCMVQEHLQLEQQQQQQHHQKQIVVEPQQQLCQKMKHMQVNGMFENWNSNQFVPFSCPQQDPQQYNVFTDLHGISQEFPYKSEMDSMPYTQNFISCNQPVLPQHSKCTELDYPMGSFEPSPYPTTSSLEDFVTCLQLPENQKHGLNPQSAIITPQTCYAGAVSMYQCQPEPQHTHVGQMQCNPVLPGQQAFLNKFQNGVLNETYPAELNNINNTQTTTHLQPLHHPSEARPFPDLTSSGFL

[3] = target: T1, human aryl hydrocarbon receptor (AHR); experiment: competition with radioiodinated photoaffinity ligand in hAHR liver cytosol; also gel shift with in vitro translated hAHR/ARNT; design: human AHR transgene expressed in mouse liver (hepatic cytosol)
Target sequence in this assay (P35869 11-848): as the sequence (P35869 11-848) above

[4] = target: T2, chimpanzee AHR; experiment: gel shift (EMSA) of in vitro translated AHR/ARNT, […] indole; assay type: cell-based

Cc1c[nH]c2ccccc12 [3-MI, 3-methyl indole]
gel shift (EMSA) of in vitro translated AHR/ARNT; HepG2 reporter [1]: 3-methyl indole, like indole was associated with enhanced binding of AHR/ARNT to its cognate response element

Clc1cc2c(cc1Cl)Oc1cc(Cl)c(Cl)cc1O2 [TCDD]
gel shift (EMSA) of in vitro translated AHR/ARNT, 10 nM TCDD [2]: revealed chimpanzee AHR to be sensitive to both TCDD and indole-mediated activation

c1ccc2[nH]ccc2c1 [indole]
competition with radioiodinated photoaffinity ligand in hAHR liver cytosol; also [3]: dose-dependent decrease in PAL binding consistent with indole being a competitor and direct ligand for the human AHR | gel shift (EMSA) of in vitro translated AHR/ARNT, 20 μM indole [4]: revealed chimpanzee AHR to be sensitive to both TCDD and indole-mediated activation

Reference: publication PMC4522678, “Adaptation of the human aryl hydrocarbon receptor to sense microbiota-derived indoles” (Scientific Reports, 2015)
